Measurements published in patent US11324726B2, “Small molecular Stemazole for promoting stem cell clonal formation and applications thereof” (BEIJING NORMAL UNIVERSITY, priority 2016, dated 2022).

Key:
[1] = test system: human hippocampal neurosphere stem cells; assay: Cell viability assay (ATP) of neurosphere stem cells (Example 6); type: cell-based; conditions: series concentrations, 4 days; maximum increase versus DMSO control
Experimental: 1) On a superclean bench and under sterile conditions, human embryo hippocampus was taken out;
2) After envelope and blood vessels were removed under a dissecting microscope, tissue obtained was rinsed with pre-cooled PBS at 4° C. 3-5 times, leaving a very small amount of PBS;
3) The tissue was cut into pieces using ophthalmic scissors, and about 5 ml of culture medium was added to suspend the tissue pieces, and then the obtained cell suspension was gently pipetted to achieve single cell state with a pipette tip;
4) The cell suspension was filtered through a 40 μm pore size cell sieve;
5) Cell density was regulated to 1×10^6/ml, and then the cells were inoculated into a […] glass culture flask;
6) The cells in the flask were cultured in a 37° C., 5% CO2 cell culture incubator.
The human hippocampal neurosphere stem cells were mechanically pipetted into small clones, regulated into a suitable density, and inoculated into a 96-well, black-wall plate at about 50 neurospheres/110 μL cell suspension/well. […] Without changing the medium, ATP was added at 20 μL/well after the compound acted for 4 days or other time, and the viability of cells was detected.

[2] = test system: human embryonic stem cell strain H9 cells; assay: Single cell clone formation in single-cell culture, alkaline phosphatase and OCT-4 staining (Example 1); type: cell-based; conditions: 100 μM; for number of clones of alkaline phosphatase positive cells: H9 single cells on MEF feeder
Experimental: Alkaline Phosphatase Staining—
1) Rinsing cells with PBS, 3 times;
2) Fixing the cell with 4% paraformaldehyde for 10 minutes;
3) Washing with PBS, 3 times;
4) Preparing alkaline phosphatase staining agent:solution A:solution B:solution C=10 μl:10 μl:1 ml;
5) Adding the alkaline phosphatase staining agent to cover the cells, and staining for 20 minutes at room temperature in dark;
6) Aspirating off the staining agent, rinsing with PBS 3 times, storing the cells in PBS, and observing staining under a microscope.
Immunofluorescence Staining—
After being digested into single cells, human embryonic stem cell strain H9 cells were divided into two groups as follows, and inoculated on low density MEF feeder layer cells in 96-well plates:
(§1) Experiment group (ST group): complete medium+Stemazole dissolved in DMSO at a final concentration in the culture medium of 100 μM;
Control group (DMSO group): complete medium+DMSO with an amount corresponding to the experiment group.
The cell ratio of each well in the two groups was H9 cell/100 MEF cells, and the medium was supplemented once every 4 days.
Alkaline phosphatase staining was performed on day 4 and day 8. The results are shown in FIG. 1A: the number and sizes of the clones formed by the H9 cells in the DMSO group were less and smaller, while the number and sizes of the clones formed in ST group were higher and larger. […] The number of clones of alkaline phosphatase positive cells in the DMSO group averaged about 12 on day 8, and the number of clones of the alkaline phosphatase positive cells in the ST group averaged about 23, and the difference between the number of the clones in the two groups was significant. As to the size, the diameter of the alkaline phosphatase positive cells in the DMSO group on day 4 averaged about 50 microns, and the diameter of the alkaline phosphatase positive cells in the ST group averaged about 100 microns. There was no significant difference between the sizes of the clones in the two groups. The diameter of the alkaline phosphatase positive cells in the DMSO group on day 8 averaged about 70 microns, and the diameter of the alkaline phosphatase positive cells in the ST group averaged about 200 microns. There was a significant difference between the sizes of the clones in the two groups.
OCT-4 immunofluorescence staining was performed on day 1 and day 8.

[3] = test system: Human embryonic stem cell line H9 cells; assay: Apoptosis in single-cell culture, Annexin V/PI flow cytometry (Example 2); type: cell-based; conditions: day 2 of inoculation; Stemazole 100 μM, Y27632 10 μM; DMSO group 54.1%
Experimental: Human embryonic stem cell line H9 cells were digested into single cells, divided into 3 groups as follows, and then inoculated at a low density on low-density MEF feeder layer cells in 6-well plates:
Experiment group (ST group): complete medium+Stemazole dissolved in DMSO at a concentration in the final culture medium of 100 μM;
Negative control group (DMSO group): complete medium+DMSO at an amount corresponding to the experiment group;
Positive control group (Y27632 group): complete medium+Y27632 dissolved in DMSO at a concentration in the final culture medium of 10 μM.
The cell ratio of each well of the three groups was 10 H9 cells/1 MEF cell.
Apoptosis was detected by flow cytometry using the specific apoptosis assay kit Annexin V/PI on day 2 of inoculation.

[4] = test system: Human embryonic stem cell line H9 cells; assay: Apoptosis during total nutrient removal culture, Annexin V/PI flow cytometry (Example 3); type: cell-based; conditions: total nutrient removal for 15 hours; 100 μM; DMSO group about 43%, normal culture about 0.4%
Experimental: After passaged, human embryonic stem cell line H9 cells were divided into the following two groups and inoculated in 6-well plates:
Experiment group (ST group): total nutrient removal culture medium (complete medium with removal of serum and growth factor)+Stemazole dissolved in DMSO at a final concentration in the culture medium of 100 μM;
Control group (DMSO group): total nutrient removal culture medium+DMSO with an amount corresponding to the experiment group;
(§2) Normal culture group: complete medium.
Apoptosis was detected by flow cytometry using the specific apoptosis assay kit Annexin V/PI.

[5] = test system: Human embryonic stem cell strain H1-9 cells; assay: Number of cells as a function of culture time in single-cell culture (Example 4); type: cell-based; conditions: 100 μM; complete medium; single-cell culture on MEF feeder
Experimental: Human embryonic stem cell strain H1-9 cells were digested into single cells, then divided into following three groups and inoculated on low-density MEF feeder layer cells in 6-well plates:
as §1
Control group (DMSO group): complete medium+DMSO with the amount corresponding to the experiment group;
as §2
The cells in each well of the three groups were maintained well grown on the MEF feeder layer cells, and the medium was supplemented once every 4 days.

[6] = test system: H9 cells; assay: Expression of stem cell markers after total nutrient removal culture, quantitative PCR and immunofluorescence (Example 5 I); type: cell-based, human; conditions: 15 hours total nutrient removal culture; 100 μM
Experimental: Following the experimental method in Example 3, H9 cells were divided into experiment group (ST group) and control group (DMSO group) and cultured. After 15 hours of total nutrient removal culture, the expression of each of human embryonic stem cells' important markers OCT-4, Sox2, FDF4, KLF4, REX1, and Nanog was detected by quantitative PCR.
Ct (Cycle threshold) of each sample was measured by calculating 2^−^ΔΔ^Ct, to compare differential expression of specific gene between different samples. In order to reduce systematic error and sampling error, triplicate wells in parallel were set for each sample. The average value of the triplicate wells was taken as the Ct of the sample, and then 2^−^ΔΔ^Ct was calculated according to the formulas below. […]
In addition, still following the experimental method in Example 3, 1H9 cells were divided into experiment group (ST group), control group (DMSO group) and normal culture group and cultured. After total nutrient removal culture for 15 hours, the expression of each of human embryonic stem cells' important markers OCT-4 and E-Cadherin was detected by immunofluorescence staining.

[7] = test system: H9 cells; assay: Ki67 proliferation marker immunofluorescence after total nutrient removal culture (Example 5 II); type: cell-based, human; conditions: 15 hours total nutrient removal culture; 100 μM
Experimental: Following the experimental method in Example 3, H9 cells were divided into experiment group (ST group), control group (DMSO group) and normal culture group and cultured. After total nutrient removal culture for 15 hours, immunofluorescence staining of the H9 cells was conducted for Ki67 (a proliferation marker).

[8] = test system: H9 cells; assay: Embryoid body formation in total nutrient removal culture (Example 5 III); type: cell-based, human; conditions: measured at the 15th hour, 100 μM, compared to DMSO group
Experimental: Following the experimental method in Example 3, H9 cells were divided into experiment group (ST group), control group (DMSO group) and normal culture group and cultured. The formation of EBs was observed under a microscope at the 15th hour, and on day 2 and day 4 of total nutrient removal culture respectively, and the diameter and number of EBs were measured at the 15th hours.

[9] = test system: H9 cells; assay: Induced differentiation into endoderm, mesoderm and ectoderm cells, marker expression (Example 5 IV); type: cell-based, human; conditions: nutrient starving 15 hours, then 4 days differentiation medium; 100 μM
Excerpt: Following the experimental method in Example 3, H9 cells were divided into experiment group (ST group), control group (DMSO group) and normal culture group and cultured.
The H9 cells were digested by Collagenase IV, washed with DMEM (high glucose) 3 times, and gently blown into small cell clusters, then were inoculated into 100 mm petri dishes with the culture medium changed into differentiation culture medium (DMEM/F12, 20% FBS, 1× non-essential amino acid, 1×sodium pyruvate, 1×β-mercaptoethanol, double antibiotics, and 2 mM glutamine). The medium was changed every 2 days, and the dishes were observed on each day. After 4 days, RNA was extracted and the differentiation ability of the H9 cells to endoderm, mesoderm and ectoderm cells was detected.

SMILES	cell viability increase over the control group [1]	OCT-4 immunofluorescence staining, single cell growth into monoclonal cells ([2]; day 1 and day 8)	diameter of the alkaline phosphatase positive cells (clone size) ([2]; day 4, DMSO group about 50)	number of clones of alkaline phosphatase positive cells ([2]; day 4, DMSO group about 8)	diameter of the alkaline phosphatase positive cells (clone size) ([2]; day 8, DMSO group about 70)	number of clones of alkaline phosphatase positive cells ([2]; day 8, DMSO group about 12)	Annexin V positive apoptotic cells [3] [%]	apoptosis rate [4]	number of cells as a function of time [5]	expression of markers OCT-4, Sox2, FDF4, KLF4, REX1, Nanog by quantitative PCR [6]	expression of markers OCT-4 and E-Cadherin by immunofluorescence staining [6]	expression of proliferation marker Ki67 [7]	formation of EBs, diameter and number [8]	expression of ectoderm marker GFAP [9]	expression of ectoderm marker Pax6 [9]	expression of mesoderm marker MSX1 [9]
NNC(=S)Nc1ccc(-c2nnc(S)o2)cc1Br [Br-Stemazole, 4-(2-br-4-(5-mercapto-1,3,4-oxadiazole-2-yl)phenyl)thiosemicarbazide]	up to 2.1 times															
NNC(=S)Nc1ccc(-c2nnc(S)o2)cc1 [Stemazole, 4-(4-(5-mercapto-1,3,4-oxadiazole-2-yl)phenyl)thiosemicarbazide]	up to 2.7 times	single cells had grown into monoclonal cells	about 100 microns	about 18	about 200 microns	about 23	25.2	about 8%	did not increase	maintained the stem cell characteristics	maintained the stem cell characteristics	maintained the proliferation ability	more EBs with larger diameter	comparable to that of the normal control group cells	higher than that of normal control group cells	higher than that of normal control group cells
C[C@@H](N)[C@H]1CC[C@H](C(=O)Nc2ccncc2)CC1 [Y27632, 4-[(1R)-1-aminoethyl]-N-(pyridine-4-yl)cyclohexane-1-carboxamide, reference compound]							20.1									
